Our source for the IC50 and inhibition values is US11725012B2, “Imidazo[1,5-a]pyrazine derivatives as PI3K δ inhibitors” (priority 2016, dated 2023).

Assay type in all cases: biochemical
Assay [1] concerns the target recombinant PI3K (p110δ/p85α) (Homo sapiens, UniProt O00329). Kind of assay: PI3Kδ ADP-Glo kinase assay. To be noted: read-out: PI3Kδ Enzyme activity IC50. How it is done: Compounds disclosed herein were tested for inhibition of PI3Kδ kinase activity using commercial ADP-Glo™ Kinase Assay (Promega Corporation) and following the manufacture's instruction. Briefly, recombinant PI3K (p110δ/p85α) enzyme, lipid kinase substrate and a serial dilution of compounds disclosed herein were incubated for 0.5 hr at room temperature. ATP was added to initiate the kinase reaction. After incubation for 1 hr at room temperature, ADP-Glo™ reagent was added to terminate the kinase reaction and deplete the remaining ATP. After incubation for 1 hr at room temperature, kinase detection reagent was added to simultaneously convert ADP to ATP and allow the newly synthesized ATP to be measured using a luciferase/luciferin reaction. After incubation for 0.5 hr at room temperature, the luminescence generated was measured on a PHERAstar FS plate reader (BMG LABTECH), The residual enzyme activity in presence of increasing concentrations of compounds was calculated based on the luminescence. The IC50 for each compound was derived from fitting the data to the four-parameter logistic equation by Graphpad Prism software.
A general note: In ADP-Glo the light output rises with the ADP produced.

A further assay addresses PI3K (p110γ) (Homo sapiens, UniProt P48736). In words: PI3Kγ ADP-Glo kinase assay. The note with it: for inhibition at 0.5 µM: read-out: PI3Kγ max inhibition (%) at 0.5 μM; for IC50: read-out: PI3Kγ Enzyme activity IC50.
Assay [2] deals with recombinant PI3K (p110α/p85α) (Homo sapiens, UniProt P42336). In words: PI3Kα ADP-Glo kinase assay. The note with it: for inhibition at 0.5 µM: read-out: PI3Kα max inhibition (%) at 0.5 μM; for IC50: read-out: PI3Kα Enzyme activity IC50.
The next assay addresses PI3K (p110β/p85α) (Homo sapiens, UniProt P42338). Kind of assay: PI3Kβ ADP-Glo kinase assay. The note with it: read-out: PI3Kβ max inhibition (%) at 0.5 μM.

Chain of recombinant PI3K (p110δ/p85α) (O00329 whole entry): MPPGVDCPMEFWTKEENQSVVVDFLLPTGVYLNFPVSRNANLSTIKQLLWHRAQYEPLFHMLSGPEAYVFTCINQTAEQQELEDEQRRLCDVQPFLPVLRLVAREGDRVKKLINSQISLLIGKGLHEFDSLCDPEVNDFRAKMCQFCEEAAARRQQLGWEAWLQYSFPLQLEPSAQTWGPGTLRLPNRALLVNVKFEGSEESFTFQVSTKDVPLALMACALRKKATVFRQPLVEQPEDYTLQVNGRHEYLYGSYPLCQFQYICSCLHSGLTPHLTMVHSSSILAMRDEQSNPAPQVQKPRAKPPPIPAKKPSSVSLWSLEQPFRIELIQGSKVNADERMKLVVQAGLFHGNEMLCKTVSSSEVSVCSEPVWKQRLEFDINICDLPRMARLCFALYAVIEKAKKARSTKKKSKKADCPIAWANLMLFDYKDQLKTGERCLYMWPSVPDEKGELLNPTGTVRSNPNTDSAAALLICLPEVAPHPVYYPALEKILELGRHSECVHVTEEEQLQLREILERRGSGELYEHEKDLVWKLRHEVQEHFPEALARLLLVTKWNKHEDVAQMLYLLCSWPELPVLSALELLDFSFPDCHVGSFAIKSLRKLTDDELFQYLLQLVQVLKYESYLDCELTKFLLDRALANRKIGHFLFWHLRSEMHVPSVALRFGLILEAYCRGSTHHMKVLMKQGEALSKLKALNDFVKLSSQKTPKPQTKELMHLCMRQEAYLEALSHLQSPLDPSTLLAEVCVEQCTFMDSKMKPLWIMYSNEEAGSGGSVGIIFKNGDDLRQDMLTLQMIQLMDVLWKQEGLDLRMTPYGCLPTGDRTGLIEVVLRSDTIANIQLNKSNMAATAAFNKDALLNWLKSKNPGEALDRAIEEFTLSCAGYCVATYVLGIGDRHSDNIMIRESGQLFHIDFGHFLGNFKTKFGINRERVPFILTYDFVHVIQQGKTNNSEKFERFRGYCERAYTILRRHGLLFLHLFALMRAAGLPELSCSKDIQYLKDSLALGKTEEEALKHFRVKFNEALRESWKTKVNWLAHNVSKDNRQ
Chain of recombinant PI3K (p110δ/p85α) (P27986 whole entry partner): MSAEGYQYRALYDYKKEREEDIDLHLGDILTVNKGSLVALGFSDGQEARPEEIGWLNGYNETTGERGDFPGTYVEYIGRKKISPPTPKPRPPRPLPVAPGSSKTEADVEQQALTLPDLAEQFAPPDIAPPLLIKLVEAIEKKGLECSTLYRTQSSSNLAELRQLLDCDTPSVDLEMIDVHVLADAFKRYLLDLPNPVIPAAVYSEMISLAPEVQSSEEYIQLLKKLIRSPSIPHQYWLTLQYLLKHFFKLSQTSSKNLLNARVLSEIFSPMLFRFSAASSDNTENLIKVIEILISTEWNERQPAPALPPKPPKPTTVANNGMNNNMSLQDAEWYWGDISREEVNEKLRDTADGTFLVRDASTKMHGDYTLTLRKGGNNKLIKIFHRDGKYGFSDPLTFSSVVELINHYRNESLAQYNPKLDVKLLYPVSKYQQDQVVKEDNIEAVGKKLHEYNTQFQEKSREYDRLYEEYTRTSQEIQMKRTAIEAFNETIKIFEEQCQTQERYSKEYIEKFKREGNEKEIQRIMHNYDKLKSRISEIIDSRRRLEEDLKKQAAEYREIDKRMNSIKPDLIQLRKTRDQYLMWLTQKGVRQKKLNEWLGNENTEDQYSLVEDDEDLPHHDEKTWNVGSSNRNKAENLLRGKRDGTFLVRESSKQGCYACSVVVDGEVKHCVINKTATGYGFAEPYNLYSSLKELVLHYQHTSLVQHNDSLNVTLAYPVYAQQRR
Chain of PI3K (p110γ) (P48736 whole entry): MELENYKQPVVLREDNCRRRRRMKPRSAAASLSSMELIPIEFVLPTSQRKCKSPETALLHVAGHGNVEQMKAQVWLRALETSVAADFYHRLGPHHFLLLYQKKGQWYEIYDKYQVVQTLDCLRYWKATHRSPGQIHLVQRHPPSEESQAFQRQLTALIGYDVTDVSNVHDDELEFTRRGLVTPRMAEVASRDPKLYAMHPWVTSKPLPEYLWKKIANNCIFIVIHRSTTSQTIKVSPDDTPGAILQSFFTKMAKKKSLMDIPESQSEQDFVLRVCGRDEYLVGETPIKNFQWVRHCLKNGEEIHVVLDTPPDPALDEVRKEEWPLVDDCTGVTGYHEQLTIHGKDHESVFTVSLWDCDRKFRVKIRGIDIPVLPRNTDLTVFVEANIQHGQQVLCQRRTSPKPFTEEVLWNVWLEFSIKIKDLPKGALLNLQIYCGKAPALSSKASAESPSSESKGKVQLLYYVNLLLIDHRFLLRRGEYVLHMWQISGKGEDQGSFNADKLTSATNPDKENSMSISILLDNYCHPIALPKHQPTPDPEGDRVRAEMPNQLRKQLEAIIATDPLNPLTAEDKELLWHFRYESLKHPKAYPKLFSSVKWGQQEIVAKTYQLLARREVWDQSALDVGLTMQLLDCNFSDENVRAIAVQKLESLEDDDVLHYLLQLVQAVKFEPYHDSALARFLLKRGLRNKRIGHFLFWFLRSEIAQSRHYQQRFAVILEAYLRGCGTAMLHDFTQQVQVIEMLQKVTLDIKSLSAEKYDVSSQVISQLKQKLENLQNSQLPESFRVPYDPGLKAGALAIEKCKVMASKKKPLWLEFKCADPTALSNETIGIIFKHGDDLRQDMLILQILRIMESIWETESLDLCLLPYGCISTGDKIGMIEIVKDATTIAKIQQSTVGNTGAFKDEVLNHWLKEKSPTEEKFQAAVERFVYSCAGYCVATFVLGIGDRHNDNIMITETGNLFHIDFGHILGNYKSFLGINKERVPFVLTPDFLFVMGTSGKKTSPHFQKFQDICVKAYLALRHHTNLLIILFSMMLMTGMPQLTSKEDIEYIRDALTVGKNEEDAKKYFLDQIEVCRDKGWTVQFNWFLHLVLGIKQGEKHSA
Chain of recombinant PI3K (p110α/p85α) (P42336 whole entry): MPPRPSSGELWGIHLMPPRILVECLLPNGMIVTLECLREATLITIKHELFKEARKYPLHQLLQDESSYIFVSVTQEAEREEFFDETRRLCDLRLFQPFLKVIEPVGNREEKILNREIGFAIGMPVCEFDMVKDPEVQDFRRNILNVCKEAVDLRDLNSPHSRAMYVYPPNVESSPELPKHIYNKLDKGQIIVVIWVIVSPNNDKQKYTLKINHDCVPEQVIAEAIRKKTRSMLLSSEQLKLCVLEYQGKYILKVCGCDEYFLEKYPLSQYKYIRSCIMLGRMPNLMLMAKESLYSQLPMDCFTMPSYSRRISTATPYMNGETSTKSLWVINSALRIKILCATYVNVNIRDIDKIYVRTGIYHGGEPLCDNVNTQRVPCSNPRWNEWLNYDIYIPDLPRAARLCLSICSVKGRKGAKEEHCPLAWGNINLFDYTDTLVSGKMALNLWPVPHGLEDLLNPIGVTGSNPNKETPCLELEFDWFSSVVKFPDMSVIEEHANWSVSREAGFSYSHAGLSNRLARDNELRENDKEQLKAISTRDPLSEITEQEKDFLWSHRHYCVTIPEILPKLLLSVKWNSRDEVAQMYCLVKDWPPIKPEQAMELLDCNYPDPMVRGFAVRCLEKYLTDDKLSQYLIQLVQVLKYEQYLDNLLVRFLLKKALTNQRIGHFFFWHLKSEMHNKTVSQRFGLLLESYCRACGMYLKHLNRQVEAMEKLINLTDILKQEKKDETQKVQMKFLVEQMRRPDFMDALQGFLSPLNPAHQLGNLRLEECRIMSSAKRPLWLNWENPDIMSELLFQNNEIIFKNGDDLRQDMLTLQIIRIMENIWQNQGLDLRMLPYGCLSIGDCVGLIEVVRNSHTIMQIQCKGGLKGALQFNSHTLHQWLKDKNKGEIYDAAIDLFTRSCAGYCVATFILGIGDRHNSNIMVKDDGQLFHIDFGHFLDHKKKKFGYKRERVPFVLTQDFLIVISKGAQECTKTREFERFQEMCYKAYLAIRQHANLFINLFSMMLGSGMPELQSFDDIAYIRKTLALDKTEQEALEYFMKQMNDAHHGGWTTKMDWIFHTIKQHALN
Chain of recombinant PI3K (p110α/p85α) (P27986 whole entry partner): as the sequence (P27986 whole entry partner) above
Chain of PI3K (p110β/p85α) (P42338 whole entry): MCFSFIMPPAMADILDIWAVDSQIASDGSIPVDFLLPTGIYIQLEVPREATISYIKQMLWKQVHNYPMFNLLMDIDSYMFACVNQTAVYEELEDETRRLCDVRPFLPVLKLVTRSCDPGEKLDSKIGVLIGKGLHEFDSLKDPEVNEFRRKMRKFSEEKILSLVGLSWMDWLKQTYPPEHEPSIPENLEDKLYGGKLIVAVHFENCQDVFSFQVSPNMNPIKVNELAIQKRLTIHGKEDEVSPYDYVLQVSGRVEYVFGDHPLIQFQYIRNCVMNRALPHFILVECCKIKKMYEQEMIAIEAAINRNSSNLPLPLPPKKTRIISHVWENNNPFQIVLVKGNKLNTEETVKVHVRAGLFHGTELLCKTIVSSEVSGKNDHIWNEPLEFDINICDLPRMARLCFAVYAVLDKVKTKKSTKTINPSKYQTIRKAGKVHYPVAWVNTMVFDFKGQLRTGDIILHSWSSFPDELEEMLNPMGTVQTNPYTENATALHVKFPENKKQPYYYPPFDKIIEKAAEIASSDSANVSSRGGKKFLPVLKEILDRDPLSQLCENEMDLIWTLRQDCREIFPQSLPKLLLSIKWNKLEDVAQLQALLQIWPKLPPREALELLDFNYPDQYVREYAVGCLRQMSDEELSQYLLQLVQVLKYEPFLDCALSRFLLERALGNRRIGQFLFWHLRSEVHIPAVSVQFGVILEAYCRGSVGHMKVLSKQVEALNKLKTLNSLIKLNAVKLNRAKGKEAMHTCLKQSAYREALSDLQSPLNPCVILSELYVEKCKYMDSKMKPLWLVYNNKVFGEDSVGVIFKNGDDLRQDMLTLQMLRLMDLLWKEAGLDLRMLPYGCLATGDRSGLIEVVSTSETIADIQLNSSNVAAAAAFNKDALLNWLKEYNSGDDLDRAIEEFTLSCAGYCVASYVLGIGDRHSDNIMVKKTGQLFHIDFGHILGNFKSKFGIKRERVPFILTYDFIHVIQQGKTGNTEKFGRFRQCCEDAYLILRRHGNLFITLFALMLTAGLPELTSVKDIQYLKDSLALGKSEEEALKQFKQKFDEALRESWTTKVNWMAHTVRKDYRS
Chain of PI3K (p110β/p85α) (P27986 whole entry partner): as the sequence (P27986 whole entry partner) above

As to `CCOc1c([C@@H](C)c2nc(Cl)c3c(N)nccn23)cc(Cl)c(F)c1-c1ccc(C(F)(F)F)nc1` [Compound 41B], the IC50 in assay [1] turned out to be 350 nM.

On to `CCOc1c([C@@H](C)c2nc(Cl)c3c(N)nccn23)cc(Cl)c(C)c1-c1ccc(C)nc1` [Compound 8B], for which, in assay [1], the IC50 amounted to 170 nM.

On to `CCOc1c(C(C)c2nc(C)c3c(N)nccn23)cc(F)c(Cl)c1-c1ccc(C(F)(F)F)nc1` (stereo not shown) [Compound 34, 3-(1-(4-chloro-2-ethoxy-5-fluoro-3-(6-(trifluoromethyl)pyridin-3-yl)phenyl)ethyl)-1-methylimidazo[1,5-a]pyrazin-8-amine], for which the IC50 in assay [1] came out at 43 nM.

For `COc1c(C(C)c2nc(Br)c3c(N)ncc(Cl)n23)cc(Cl)c(C)c1-c1cccnc1` (stereo not shown) [Compound 5, 1-bromo-5-chloro-3-(1-(5-chloro-2-methoxy-4-methyl-3-(pyridin-3-yl)phenyl)ethyl) imidazo[1,5-a]pyrazin-8-amine], the inhibition at 0.5 µM was 44% on PI3K (p110γ) and 19% in assay [2]. Moreover, the IC50 in assay [1] came to 18 nM.

Take `COc1c(C(C)c2ncc3c(N)nccn23)cc(Cl)c(C)c1-c1cccnc1` (stereo not shown) [Compound 1, 3-(1-(5-chloro-2-methoxy-4-methyl-3-(pyridin-3-yl)phenyl)ethyl)imidazo[1,5-a]pyrazine-8-amine]: the inhibition at 0.5 µM at PI3K (p110γ) is -27%; on PI3K (p110β/p85α) it was 6%. The IC50 in assay [1] worked out at 150 nM.

Regarding `CCOc1c([C@@H](C)c2nc(Cl)c3c(N)nccn23)cc(Cl)c(C)c1-c1ccc(Cl)nc1` [Compound 27B], the IC50 in assay [1] came to 500 nM.

On to `CC(C)Oc1c(C(C)c2nc(Cl)c3c(N)nccn23)cc(Cl)c(F)c1C1CNC(=O)C1` (single isomer, unassigned) [Compound 48C, 4-(3-(1-(8-amino-1-chloroimidazo[1,5-a]pyrazin-3-yl)ethyl)-5-chloro-6-fluoro-2-isopropoxyphenyl)pyrrolidin-2-one], for which the IC50 in assay [1] was determined as 160 nM.

In the case of `COc1c(C(C)c2nc(C3CC3)c3c(N)nccn23)cc(Cl)c(C)c1-c1cccnc1` (stereo not shown) [Compound 53, 3-(1(5-chloro-2-methoxy-4-methyl-3-(pyridin-3-yl)phenyl)ethyl)-1-cyclopropyl imidazo[1,5-a]pyrazin-8-amine], the IC50 in assay [1] amounted to 1900 nM.

With `CCOc1c([C@@H](C)c2nc(Cl)c3c(N)nccn23)cc(Cl)c(F)c1-c1ccc(C(F)(F)F)nc1OC` [Compound 43B], the IC50 in assay [1] was above 1000 nM.

`COc1c(C(C)c2nc(C)c3c(N)nccn23)cc(Cl)c(C)c1-c1cccnc1` (stereo not shown) [Compound 52, 3-(1-(5-chloro-2-methoxy-4-methyl-3-(pyridin-3-yl)phenyl)ethyl)-1-methyl imidazo[1,5-a]pyrazin-8-amine]: the inhibition at 0.5 µM on PI3K (p110γ) is -11%; in assay [2] it was 6%. Besides, the IC50 in assay [1] turned out to be 7.7 nM.

Regarding `CCOc1c(C(C)c2nc(Cl)c3c(N)nccn23)cc(Cl)c(C)c1N1CCOCC1` (single isomer, unassigned) [Compound 51B, 1-chloro-3-(1-(5-chloro-2-ethoxy-4-methyl-3-morpholinophenyl)ethyl)imidazo[1,5-a]pyrazin-8-amine], the IC50 in assay [1] is 320 nM.

As to `Cc1nn(C(C)c2cc(Cl)c(C#N)c(=O)n2-c2ccccc2)c2ncnc(N)c12` (stereo not shown) [Compound 55, 6-(1-(4-amino-3-methyl-1H-pyrazolo[3,4-d]pyrimidin-1-yl)ethyl)-4-chloro-2-oxo-1-phenyl-1,2-dihydropyridine-3-carbonitrile], the IC50 in assay [1] turned out to be 450 nM.

Consider `Cc1c(Cl)cc([C@@H](C)c2nc(Br)c3c(N)nccn23)c(OC(C)C)c1-c1ccc(C(F)(F)F)nc1` [Compound 38B], for which the IC50 in assay [1] was determined as 2100 nM.

In the case of `CCOc1c(C(C)c2nc(Cl)c3c(N)nccn23)cc(Cl)c(F)c1C1CCOCC1` (single isomer, unassigned) [Compound 49B, 1-chloro-3-(1-(5-chloro-2-ethoxy-4-fluoro-3-(tetrahydro-2H-pyran-4-yl)phenyl)ethyl)imidazo[1,5-a]pyrazin-8-amine], the IC50 in assay [1] was 26 nM.

As for `CC(C)Oc1c([C@@H](C)c2nc(Cl)c3c(N)nccn23)cc(Cl)c(F)c1-c1ccc(C(=O)N(C)C)nc1` [Compound 16B], the IC50 in assay [1] turned out to be 62 nM.

As to `CC(C)Oc1c(C(C)c2nc(Cl)c3c(N)nccn23)cc(Cl)c(F)c1C1CNC(=O)C1` (single isomer, unassigned) [Compound 48D, 4-(3-(1-(8-amino-1-chloroimidazo[1,5-a]pyrazin-3-yl)ethyl)-5-chloro-6-fluoro-2-isopropoxyphenyl)pyrrolidin-2-one], the IC50 in assay [1] was found to be 6.8 nM.

Take `CC(C)Oc1c([C@@H](C)c2nc(Cl)c3c(N)nccn23)cc(Cl)c(F)c1-c1ccc(C(N)=O)nc1` [Compound 17A]: in assay [1], the IC50 was 91 nM.

Consider `COc1c(C(C)c2nc(Br)c3c(N)nccn23)cc(Cl)c(C)c1-c1cccnc1` (stereo not shown) [Compound 2, 1-bromo-3-(1-(5-chloro-2-methoxy-4-methyl-3-(pyridin-3-yl)phenyl)ethyl)imidazo[1,5-a]pyrazin-8-amine], for which the inhibition at 0.5 µM at PI3K (p110γ) stood at 37%. Moreover, the IC50 in assay [1] came out at 1.5 nM; in assay [2], 560 nM.

`COc1c(C(C)c2nc(-c3cccc(O)c3)c3c(N)nccn23)cc(Cl)c(C)c1-c1cccnc1` (stereo not shown) [Compound 4, 3-(8-amino-3-(1-(5-chloro-2-methoxy-4-methyl-3-(pyridin-3-yl)phenyl)ethyl)imidazo[1,5-a]pyrazin-1-yl)phenol]: the inhibition at 0.5 µM at PI3K (p110γ) came out at 9%; in assay [2], 20%. In addition, the IC50 in assay [1] came to 7.5 nM.

Consider `CCOc1c(C(C)c2nc(Br)c3c(N)nccn23)cc(Cl)c(C)c1-c1ccc(C)nc1` (stereo not shown) [Compound 7, 1-bromo-3-(1-(5-chloro-2-ethoxy-4-methyl-3-(6-methylpyridin-3-yl)phenyl)ethyl) imidazo[1,5-a]pyrazin-8-amine], for which the IC50 on PI3K (p110γ) was 200 nM; in assay [1], 1.9 nM; in assay [2], 420 nM.

`CC(C)Oc1c([C@@H](C)c2nc(Cl)c3c(N)nccn23)cc(Cl)c(F)c1-c1ccc(C(F)(F)F)nc1` [Compound 40B]: the IC50 in assay [1] amounted to 150 nM.

For the compound `Cc1nc(C(C)c2cc(Cl)c(F)c(-c3ccc(C#N)nc3)c2OC(C)C)n2ccnc(N)c12` (single isomer, unassigned) [Compound 59B, 5-(3-(1-(8-amino-1-methylimidazo[1,5-a]pyrazin-3-yl)ethyl)-5-chloro-6-fluoro-2-isopropoxyphenyl)picolinonitrile], the IC50 in assay [1] stood at 240 nM.

With `COc1c(C(C)c2nc(Cl)c3c(N)nccn23)cc(Cl)c(C)c1-c1cccnc1` (stereo not shown) [Compound 6, 1-chloro-3-(1-(5-chloro-2-methoxy-4-methyl-3-(pyridin-3-yl)phenyl)ethyl)imidazo[1,5-a]pyrazin-8-amine], the inhibition at 0.5 µM at PI3K (p110γ) was 52%; in assay [2], 34%. Further, the IC50 in assay [1] came out at 2 nM.

In the case of `CCOc1c(C(C)c2nc(Cl)c3c(N)nccn23)cc(Cl)c(F)c1C1CCOCC1` (stereo not shown) [Compound 49, 1-chloro-3-(1-(5-chloro-2-ethoxy-4-fluoro-3-(tetrahydro-2H-pyran-4-yl)phenyl)ethyl)imidazo[1,5-a]pyrazin-8-anine], the IC50 in assay [1] was 3.1 nM.

For the compound `COc1c(C(C)c2nc(Br)c3c(N)nccn23)cc(Cl)c(C)c1-c1c(C)noc1C` (stereo not shown) [Compound 21, 1-bromo-3-(1-(5-chloro-3-(3,5-dimethylisoxazol-4-yl)-2-methoxy-4-methylphenyl)ethyl)imidazo[1,5-a]pyrazin-8-amine], the IC50 at PI3K (p110γ) came to 1500 nM; in assay [1], 3.3 nM; in assay [2], 2000 nM.

`CC(C)Oc1c(C(C)c2nc(Cl)c3c(N)nccn23)cc(Cl)c(F)c1-c1ccc(C(=O)O)nc1` (single isomer, unassigned) [Compound 18B]: the IC50 in assay [1] was 26 nM.

On to `CCOc1c(C(C)c2nc(Br)c3c(N)nccn23)cc(Cl)c(C)c1-c1ccc(Cl)cc1` (stereo not shown) [Compound 9, 1-bromo-3-(1-(4′,5-dichloro-2-ethoxy-6-methyl-[1,1′-biphenyl]-3-yl)ethyl)imidazo[1,5-a]pyrazin-8-amine], for which the IC50 in assay [1] was 100 nM.

For the compound `COc1c(C(C)c2nc(-c3ccccc3)c3c(N)nccn23)cc(Cl)c(C)c1-c1cccnc1` (stereo not shown) [Compound 3, 3-(1-(5-chloro-2-methoxy-4-methyl-3-(pyridin-3-yl)phenyl)ethyl)-1-phenylimidazo[1,5-a]pyrazin-8-amine], the IC50 in assay [1] came to 150 nM.

With `CCOc1c(C(C)c2nc(-c3ccc(OC)cc3)c3c(N)nccn23)cc(Cl)c(C)c1-c1ccc(OC)cc1` (stereo not shown) [Compound 44, 3-(1-(5-chloro-2-ethoxy-4′-methoxy-6-methyl-[151′-biphenyl]-3-yl)ethyl)-1-(4-methoxyphenyl)imidazo[1,5-a]pyrazin-8-amine], in assay [1], the IC50 was 380 nM.

Regarding `CCCOc1c([C@@H](C)c2nc(Cl)c3c(N)nccn23)cc(Cl)c(F)c1-c1ccc(C(F)(F)F)nc1` [Compound 42B], the IC50 in assay [1] is 330 nM.

In general, IC50 refers to the concentration at which inhibition is half-maximal. The inhibition is the change of the read-out against control, counted positive when it falls.
